Source: patent US12590122B2, “NRP-1 binding inhibitory peptides and uses thereof” (priority 2019, dated 2026)
Like-named read-outs stand apart in the source and are kept apart here. Where a SMILES comes first, the peptide text is derived from it.

Columns and labels:
NRP-1 [1] = biological target: T1, NRP-1 (Homo sapiens, UniProt O14786); assay: NRP-1 binding assay: inhibition of (bt)-VEGF-A165 binding to immobilized NRP-1, chemiluminescent detection
Protocol: More precisely, the inventors have shown that the compounds of formula (I) disclosed herein bind to NRP-1 at the nanomolar level whereas the most efficient known inhibitors to date bind to NRP-1 at the micromolar level.
The flat bottom surface of a 96-well plate was coated with 100 μL (200 ng/well) recombinant human NRP-1 and incubated overnight at 4° C. Non-specific binding was blocked by the incubation with 0.5% BSA in PBS. 50 μL of peptide dissolved in PBS in range concentrations and 50 μL (400 ng/mL) of human (bt)-VEGF-A165 in PBS containing 4 μg/mL of heparin were added respectively. After 2 h incubation at room temperature the plate was washed and treated with streptavidin-horseradish peroxidase conjugate in PBS (1:8000). Chemiluminescence was quantified immediately after addition of 100 μL Chemiluminescent substrate. In a positive control only (bt)-VEGF-A165 was present in wells, while, in negative control, wells were not coated by NRP-1. Percentages of inhibition were calculated by the following formula: 100%−[[(S−[…])/(P−NS)]·100%] where S is the signal intensity measured, NS is the signal measured in negative control, and P is the signal measured in positive control.
Selected active branched peptides were tested again using a more sensitive method with chemiluminescent detection. Moreover, some modified compounds were also examined. The IC50 for selected Lys(hArg)-X-X-Arg peptides was between 2-21 μM (Puszko A. K. at al. Neuropilin-1 peptide-like ligands with proline mimetics, tested using the improved chemiluminescence affinity detection method. MedChemComm, 2019, Vol. 10: 332-340).

NRP-1 [2] = biological target: T1, NRP-1; conditions: comparative branched peptides without cysteine; colorimetric method; cited from earlier work
NRP-1 [3] = biological target: T1, NRP-1; conditions: further comparative branched peptides without cysteine; chemiluminescent detection (Puszko et al. 2019); cited from earlier work
[4] = peptides of formula (I), chemiluminescence binding assay, read-out: IC50

T1 sequence (O14786 22-923): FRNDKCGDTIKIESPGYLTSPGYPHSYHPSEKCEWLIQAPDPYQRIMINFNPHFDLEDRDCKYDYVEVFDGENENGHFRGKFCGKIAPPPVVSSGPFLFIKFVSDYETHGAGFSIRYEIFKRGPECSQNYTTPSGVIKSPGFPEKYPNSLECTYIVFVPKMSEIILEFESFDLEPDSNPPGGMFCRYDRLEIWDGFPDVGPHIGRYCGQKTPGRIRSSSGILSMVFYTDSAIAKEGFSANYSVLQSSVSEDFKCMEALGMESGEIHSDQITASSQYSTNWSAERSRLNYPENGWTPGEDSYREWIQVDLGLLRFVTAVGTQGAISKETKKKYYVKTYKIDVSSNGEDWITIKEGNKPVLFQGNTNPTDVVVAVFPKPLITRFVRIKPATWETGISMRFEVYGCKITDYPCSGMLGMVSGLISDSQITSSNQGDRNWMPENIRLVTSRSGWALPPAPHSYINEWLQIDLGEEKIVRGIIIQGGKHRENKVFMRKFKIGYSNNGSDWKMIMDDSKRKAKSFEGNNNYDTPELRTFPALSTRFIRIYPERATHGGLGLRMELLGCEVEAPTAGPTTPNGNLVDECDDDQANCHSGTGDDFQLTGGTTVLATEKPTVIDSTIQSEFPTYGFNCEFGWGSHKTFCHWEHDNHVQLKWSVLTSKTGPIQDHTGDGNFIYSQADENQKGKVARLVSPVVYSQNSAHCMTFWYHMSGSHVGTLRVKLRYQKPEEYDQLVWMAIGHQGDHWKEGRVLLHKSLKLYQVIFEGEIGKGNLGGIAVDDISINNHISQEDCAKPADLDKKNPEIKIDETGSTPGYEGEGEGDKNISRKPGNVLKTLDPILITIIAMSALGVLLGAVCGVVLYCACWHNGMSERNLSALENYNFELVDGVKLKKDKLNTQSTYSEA

IC50 (NRP-1 [1]; [4]) [µM]	Compound	IC50 (NRP-1 [2]) [nM]	other results
0.05	N=C(N)NCCCC[C@H](N)C(=O)NCCCC[C@H](NC(=O)[C@@H](N)CS)C(=O)N[C@@H](CCN)C(=O)N1C2CCCCC2C[C@H]1C(=O)N[C@@H](CCCNC(=N)N)C(=O)O (stereo partly drawn) [H-Cys-Lys(hArg)-Dab-Oic-Arg-OH] (HELM PEPTIDE1{C.K.[Dab].[O=C([C@@H]1CC2CCCCC2N1[*:1])[*:2]].R}|PEPTIDE2{[N=C(N)NCCCC[C@H](N)C(=O)[*:2]]}$PEPTIDE1,PEPTIDE2,2:R3-1:R2$$$V2.0)	–	–
0.07	N=C(N)NCCCC[C@H](N)C(=O)NCCCC[C@H](NC(=O)[C@@H](N)CS)C(=O)N[C@@H](CCN)C(=O)N1CC=C[C@H]1C(=O)N[C@@H](CCCNC(=N)N)C(=O)O [H-Cys-Lys(hArg)-Dab-ΔPro-Arg-OH] (HELM PEPTIDE1{C.K.[Dab].[O=C([C@@H]1C=CCN1[*:1])[*:2]].R}|PEPTIDE2{[N=C(N)NCCCC[C@H](N)C(=O)[*:2]]}$PEPTIDE1,PEPTIDE2,2:R3-1:R2$$$V2.0)	–	–
0.04	N=C(N)NCCCC[C@H](NC(=O)[C@@H](N)CS)C(=O)NCCCC[C@H](N)C(=O)N[C@@H](CCN)C(=O)N1C2CCCCC2C[C@H]1C(=O)N[C@@H](CCCNC(=N)N)C(=O)O (stereo partly drawn) [H-Lys(Cys-hArg)-Dab-Oic-Arg-OH] (HELM PEPTIDE1{K.[Dab].[O=C([C@@H]1CC2CCCCC2N1[*:1])[*:2]].R}|PEPTIDE2{C.[N=C(N)NCCCC[C@H](N[*:1])C(=O)[*:2]]}$PEPTIDE1,PEPTIDE2,1:R3-2:R2$$$V2.0)	–	–
0.06	N=C(N)NCCCC[C@H](NC(=O)[C@@H](N)CS)C(=O)NCCCC[C@H](N)C(=O)N[C@@H](CCN)C(=O)N1CC=C[C@H]1C(=O)N[C@@H](CCCNC(=N)N)C(=O)O [H-Lys(Cys-hArg)-Dab-ΔPro-Arg-OH] (HELM PEPTIDE1{K.[Dab].[O=C([C@@H]1C=CCN1[*:1])[*:2]].R}|PEPTIDE2{C.[N=C(N)NCCCC[C@H](N[*:1])C(=O)[*:2]]}$PEPTIDE1,PEPTIDE2,1:R3-2:R2$$$V2.0)	–	–
–	N=C(N)NCCCC[C@H](N)C(=O)NCCCC[C@H](N)C(=O)N[C@@H](CCN)C(=O)N1CCC[C@H]1C(=O)N[C@@H](CCCNC(=N)N)C(=O)O [H-Lys(hArg)-Dab-Pro-Arg-OH] (HELM PEPTIDE1{K.[Dab].P.R}|PEPTIDE2{[N=C(N)NCCCC[C@H](N)C(=O)[*:2]]}$PEPTIDE1,PEPTIDE2,1:R3-1:R2$$$V2.0)	200	–
–	N=C(N)NCCCC[C@H](N)C(=O)NCCCC[C@H](N)C(=O)N[C@@H](CN)C(=O)N1CCC[C@H]1C(=O)N[C@@H](CCCNC(=N)N)C(=O)O [H-Lys(hArg)-Dap-Pro-Arg-OH] (HELM PEPTIDE1{K.[NC[C@H](N[*:1])C(=O)[*:2]].P.R}|PEPTIDE2{[N=C(N)NCCCC[C@H](N)C(=O)[*:2]]}$PEPTIDE1,PEPTIDE2,1:R3-1:R2$$$V2.0)	200	–
–	N=C(N)NCCCC[C@H](N)C(=O)NCCCC[C@H](N)C(=O)N1CCC[C@H]1C(=O)N[C@@H](CCN)C(=O)N[C@@H](CCCNC(=N)N)C(=O)O [H-Lys(hArg)-Pro-Dab-Arg-OH] (HELM PEPTIDE1{K.P.[Dab].R}|PEPTIDE2{[N=C(N)NCCCC[C@H](N)C(=O)[*:2]]}$PEPTIDE1,PEPTIDE2,1:R3-1:R2$$$V2.0)	200	–
–	N=C(N)NCCCC[C@H](N)C(=O)NCCCC[C@H](N)C(=O)N1CCC[C@H]1C(=O)N1CCC[C@H]1C(=O)N[C@@H](CCCNC(=N)N)C(=O)O [H-Lys(hArg)-Pro-Pro-Arg-OH] (HELM PEPTIDE1{K.P.P.R}|PEPTIDE2{[N=C(N)NCCCC[C@H](N)C(=O)[*:2]]}$PEPTIDE1,PEPTIDE2,1:R3-1:R2$$$V2.0)	1000	–
–	C[C@@H](O)[C@H](N)C(=O)N[C@@H](CCCCN)C(=O)N1CCC[C@H]1C(=O)N[C@@H](CCCNC(=N)N)C(=O)O [TKPR] (H-TKPR-OH; N-terminus and C-terminus assumed)	–	IC50 (NRP-1 [1]; parent tetrapeptide without N-terminal Cys, VEGF-A165/NRP-1 binding, read-out: IC50 [μM] without Cys): > 100 µM
–	H-Lys(hArg)-Dab-Oic-Arg-OH	–	IC50 (NRP-1 [3]): 2300 nM
–	H-Lys(hArg)-Oic-Oic-Arg-OH	–	IC50 (NRP-1 [3]): 7200 nM
